Here are results for 2 compounds from article PMC12865225 (Clinical and Translational Science, 2026).

For data set [1], the target named is T1, OATP1B3 (Homo sapiens, UniProt Q9NPD5).
T1 construct: expressed in transfected cells; host or cells: HEK293 (recombinant baculovirus-mediated transduction)
T1 sequence (Q9NPD5 1-702): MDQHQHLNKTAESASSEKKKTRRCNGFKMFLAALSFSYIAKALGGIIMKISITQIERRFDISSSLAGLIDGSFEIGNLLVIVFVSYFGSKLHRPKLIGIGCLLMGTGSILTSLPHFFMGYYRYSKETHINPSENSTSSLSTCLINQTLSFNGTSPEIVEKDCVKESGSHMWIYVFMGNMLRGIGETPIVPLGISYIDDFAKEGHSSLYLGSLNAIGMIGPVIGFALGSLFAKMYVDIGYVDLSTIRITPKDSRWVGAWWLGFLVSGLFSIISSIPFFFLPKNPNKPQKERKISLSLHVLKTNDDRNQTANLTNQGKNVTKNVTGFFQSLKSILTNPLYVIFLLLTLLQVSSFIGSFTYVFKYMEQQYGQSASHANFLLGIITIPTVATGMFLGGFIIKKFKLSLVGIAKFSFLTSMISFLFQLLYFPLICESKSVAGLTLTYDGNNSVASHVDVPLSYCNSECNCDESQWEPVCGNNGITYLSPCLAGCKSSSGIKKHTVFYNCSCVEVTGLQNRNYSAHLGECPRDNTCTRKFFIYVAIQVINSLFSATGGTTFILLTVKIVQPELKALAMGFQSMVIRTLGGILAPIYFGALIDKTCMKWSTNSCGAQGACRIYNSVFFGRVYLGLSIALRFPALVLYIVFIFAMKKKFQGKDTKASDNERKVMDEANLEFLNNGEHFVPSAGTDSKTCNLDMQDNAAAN
Briefly: OATP1B3 inhibition with fluorescent substrate 8-Fluo-cAMP in HEK293 cells. In kind it is cell-based. Particulars: 2.5 µM 8-Fluo-cAMP, 5 min, 30 min preincubation. On the procedure: 8- (2- [Fluoresceinyl]aminoethylthio)adenosine- 3', 5'- cyclic monophosphate (8-Fluo-cAMP) was acquired from Biolog Life Science Institute (Bremen, Germany), 4′,5′-dibromofluorescein was acquired from Sigma-Aldrich (St. Louis, MO, USA) and 2′,7′-dichlorofluorescein was acquired from Santa Cruz Biotechnology (Dallas, TX, USA).
Inhibition studies with fluorescent substrates in OATP transduced HEK293 cells The concentrations of fluorescent probe substrates were 1 µM 2′,7′-dichlorofluorescein for OATP1B1, 2.5 µM 8-Fluo-cAMP for OATP1B3 and 1 µM 4′,5′-dibromofluorescein for OATP2B1, and these concentrations were selected to be within or below of previously reported […]
reported linear ranges of transport for these substrate-transporter combinations.1,2,4 8-Fluo-cAMP was dissolved in ultrapure water, while dimethyl sulfoxide (DMSO) was used for all other compounds. […] For the quantification of fluorescent substrates, cells were lysed with 120 µl of lysis solution (1% Triton X-100, 5 mM EDTA, 150 mM sodium chloride and 150 mM TRIC-hydrochloride and adjusted to pH 8 with sodium hydroxide) for 30 min at 300 RPM shaking before transferring 80 µl of samples to a transparent 96-well plate containing 20 µl of 0.5 M sodium hydroxide. […] The plates were measured with a fluorescent plate reader (Varioskan LUX from ThermoFisher Scientific). […]

The next data set relates to T2, MRP3.
T2 construct: expressed in transfected cells; host or cells: HEK293 cells
The data set can be described thus: Efflux transport assay in MRP3 HEK293 membrane vesicles. The format is biochemical, human. The following applies: 5 and 50 µM, 10 min.

The conditions of data set [2]: cited from earlier work; for Cmax: 1000 mg dose, read-out: total C max; for unbound fraction in plasma: static model input.
Data set [3] has as its target T1, OATP1B3. Briefly: Uptake transport assay in OATP1B3-expressing HEK293 cells. The format is cell-based. The following applies: for transport by OATP1B3: 2 and 50 μM, 10 min; for Km at 2 min: human, HEK293 cells transiently expressing OATP1B3, pH 7.4, uptake; for Km / Vmax (pmol/106 cells/min) OATP1B3: uptake; for Km at 2 min / Km / Vmax (pmol/106 cells/min) OATP1B3: 2 min. On the procedure: The human transporters OATP1B1, OATP1B3, OATP2B1, and OAT1‐OAT4 and a negative control protein (enhanced yellow fluorescent protein, eYFP) were transiently expressed in human embryonic kidney 293 (HEK293) cells by recombinant baculovirus‐mediated transduction. Baculoviruses carrying human genes for the transporters were prepared as reported previously. HEK293 cells were cultured in DMEM containing 10% fetal bovine serum at 37°C and 5% CO2 and passaged two to three times per week. For the transport studies, 0.05 × 10^6 cells for 48‐well plates (OATPs) or 0.06 × 10^6 cells for 24‐well plates (OATs) were seeded onto cell‐culture treated well plates coated with poly‐D‐lysine. After 1 day, cells were transduced to produce recombinant proteins by changing media to DMEM containing 30 μL (48‐well plates) or 60 μL (24‐well plates) of recombinant baculovirus and 3 mM (OATs) or 5 mM (OATPs) sodium butyrate in a total media volume of 500 μL. The cells were cultured for a further 2 days before the transport assays.
For the transport studies, media were removed and cells were washed once with warm transport uptake buffer (TP‐buffer—pH 7.4 HBSS with 25 mM HEPES and 4 mM sodium bicarbonate). Each experiment included triplicate (OATP) or duplicate (OAT) samples for every test condition. The uptake was started by removing liquid from wells and applying warm TP‐buffer (200 μL for 24‐well plates or 125 μL for 48‐well plates) containing a test compound to cells. Transport assays were terminated after a pre‐specified incubation time (reported in figure legends) by removing substrate solution and washing cells three times with cold TP‐buffer (300 μL for 48‐well plates and 400 μL for 24‐well plates). For the liquid chromatography mass spectrometry (LC–MS) analysis, compounds were extracted from cells with 125 μL (48‐well plates) or 250 μL (24‐well plates) of an ultrapure‐water solution containing 75% methanol and 0.1% formic acid, shaking at 250 RPM for 30 min. […] Samples were transferred to well plates, centrifuged at 3000 g for 30 min, and transferred to a new well plate for the analysis.
Equation (2) (the Michaelis–Menten equation) was fit to the transport kinetic assay data. […] (2) Uptake=Vmax×S/Km+S

Take `Cc1onc(-c2c(Cl)cccc2Cl)c1C(=O)N[C@@H]1C(=O)N2[C@@H]1SC(C)(C)[C@@H]2C(=O)O` [Dicloxacillin]: the IC50 (usually the concentration needed to halve the response being measured) on OATP1B3 [1] turned out to be 4.28 µM. For the same compound, the “transport by MRP3” value with MRP3 is reported as “did not transport”. In data set [2], the Cmax is 67 µM and the “unbound fraction in plasma” value is listed as 0.02. Moreover, at OATP1B3 [3], the “transport by OATP1B3” value was “transported”, the Km (commonly the concentration of substrate that gives half-maximal velocity) at 2 min came out at 2.81 µM, the Km turned out to be 3 µM and the “Vmax (pmol/106 cells/min) OATP1B3” value worked out at 2.69 pmol/106 cells/min.

For the compound `Cc1onc(-c2c(F)cccc2Cl)c1C(=O)N[C@@H]1C(=O)N2[C@@H]1SC(C)(C)[C@@H]2C(=O)O` [Flucloxacillin], on OATP1B3 [1], the IC50 came out at 46.3 µM. In addition, the “transport by MRP3” value with MRP3 was “did not transport”. Moreover, in data set [2], the Cmax is 46 µM and the “unbound fraction in plasma” value was 0.06. Also, at OATP1B3 [3], the “transport by OATP1B3” value is reported as “transported”, the Km at 2 min was found to be 18.3 µM, the Km lay in the range of 10 to 18 µM and the “Vmax (pmol/106 cells/min) OATP1B3” value came to 6.02 pmol/106 cells/min.
